Test systems include A498; A549; CCRF-CEM; COLO 205; EKVX; HCT-15; KM12; M14; NCI-H226; NCI-H522; OVCAR-3; OVCAR-4; RXF 393; SK-MEL-5; SK-OV-3; SN12C; UACC-257; Malme-3M; 786-0; SR.
Holding throughout (assay): inhibition of tumour cell growth, NCI panel, 48 h

SMILES strings stand for the structures.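 The compound was tested at five concentrations on cells cultured in 96-well plates, with a 48-hour exposure period. The concentration for 50% growth inhibition is given as GI50.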 Calls of active or inactive are those of the source. No stated cut-off is given here; in the data, active = GI50 up to about 1.1 µM and inactive = higher.

Here are results for eleven compounds from ChEMBL document CHEMBL1201862, “PubChem BioAssay data set” (2004).

For the compound `COC(=O)C1CCC(=O)C(Sc2ccccc2)C1` (configuration not stated), the GI50 is > 100 µM (inactive) in the test on A498; > 100 µM (inactive) in the test with A549; 22.5 µM (inactive) with CCRF-CEM; > 100 µM (inactive) in the test on COLO 205; > 100 µM (inactive) in the test with EKVX; greater than 100 µM in the test on HCT-15. In addition, the GI50 in the test on KM12 was > 100 µM (inactive); with M14, > 100 µM (inactive); in the test with NCI-H226, > 100 µM (inactive); in the test with NCI-H522, 52.7 µM (inactive); in the test with OVCAR-3 it was > 100 µM (inactive); with OVCAR-4 it was > 100 µM (inactive). Also, the GI50 with RXF 393 was > 100 µM (inactive); in the test on SK-MEL-5 it was > 100 µM (inactive); in the test on SK-OV-3, > 100 µM (inactive); in the test with SN12C, > 100 µM (inactive); in the test with UACC-257, 83.8 µM (inactive).

`N/C(=N\O)N/N=C/c1cc2c(cc1Cl)OCO2`: the GI50 in the test with A498 is 65.6 µM (inactive); in the test on A549, 36.8 µM (inactive); with CCRF-CEM, 27 µM (inactive); in the test on COLO 205, 33.3 µM (inactive); with EKVX, 60.4 µM (inactive); in the test with HCT-15, 13.7 µM. The GI50 in the test on KM12 was 29.5 µM (inactive); with Malme-3M it was > 100 µM (inactive); in the test with NCI-H226 it was 29.1 µM (inactive); in the test with NCI-H522, 16 µM (inactive); with OVCAR-4, 52 µM (inactive); in the test with RXF 393, 38.4 µM (inactive). For the same compound, the GI50 is 24.2 µM (inactive) with SK-MEL-5, 26.4 µM (inactive) with SK-OV-3, 59 µM (inactive) with SN12C and 42.3 µM (inactive) with UACC-257.

On to `CC(C)CNc1nc2ncnc(N)c2[nH]1`, for which the GI50 in the test on 786-0, in the test with A498, in the test with A549, in the test on CCRF-CEM, in the test on COLO 205 and in the test on EKVX was > 100 µM (inactive) throughout. The GI50 was greater than 100 µM with HCT-15; > 100 µM (inactive) in the test with KM12; > 100 µM (inactive) in the test on M14; > 100 µM (inactive) in the test with Malme-3M; > 100 µM (inactive) in the test on NCI-H226; > 100 µM (inactive) in the test on NCI-H522. The GI50 in the test with OVCAR-3, with OVCAR-4, in the test on RXF 393, in the test with SK-MEL-5, in the test on SK-OV-3 and with SN12C was > 100 µM (inactive) in each case. Further, the GI50 with UACC-257 is > 100 µM (inactive).

As to `COc1ccc2c(c1)OC[C@@H]1c3cc(O)c(OCc4ccccc4)cc3O[C@H]21`, the GI50 in the test with 786-0 was 37.3 µM (inactive); in the test with A498 it was 6.62 µM (inactive); in the test on A549, 26.2 µM (inactive); in the test with CCRF-CEM it was 34.3 µM (inactive); in the test with COLO 205 it was 27.9 µM (inactive); with EKVX it was 19.4 µM (inactive). Further, the GI50 in the test with HCT-15 is 22 µM; with KM12, 30.2 µM (inactive); in the test with M14, 27.9 µM (inactive); with Malme-3M, 28.1 µM (inactive); in the test with NCI-H226, 27.3 µM (inactive); with NCI-H522 it was 13.5 µM (inactive). The GI50 was 38 µM (inactive) in the test on OVCAR-3; 16.6 µM (inactive) in the test with OVCAR-4; 25.9 µM (inactive) in the test on RXF 393; 13.1 µM (inactive) in the test with SK-MEL-5; 17.3 µM (inactive) in the test on SK-OV-3; 17.9 µM (inactive) in the test with UACC-257.

Take `O=c1[nH]cnc2c(COCCCO)c[nH]c12`: the GI50 is > 100 µM (inactive) in the test with 786-0; > 100 µM (inactive) with A549; > 100 µM (inactive) in the test on CCRF-CEM; > 100 µM (inactive) in the test on COLO 205; > 100 µM (inactive) in the test on EKVX; greater than 100 µM in the test with HCT-15. Further, the GI50 in the test with KM12, in the test with M14, with Malme-3M, in the test on NCI-H522, in the test on OVCAR-3 and in the test on RXF 393 was > 100 µM (inactive) throughout. Moreover, the GI50 with SK-MEL-5, with SK-OV-3, in the test with SN12C, in the test on SR and with UACC-257 was > 100 µM (inactive) throughout.

In the case of `Clc1cc(Cl)cc(C2SCc3nc4ccccc4n32)c1` (configuration not stated), the GI50 in the test on 786-0 is 15.6 µM (inactive); in the test with A549, 19.6 µM (inactive); in the test with CCRF-CEM, 9.79 µM (inactive); in the test with COLO 205, 18.2 µM (inactive); with EKVX, 22.6 µM (inactive); in the test with KM12 it was 13.6 µM (inactive). Besides, the GI50 in the test with Malme-3M was 15.8 µM (inactive); in the test with NCI-H226, 19.9 µM (inactive); in the test on NCI-H522 it was 14.3 µM (inactive); with OVCAR-3 it was 16.9 µM (inactive); in the test with RXF 393 it was 14.6 µM (inactive); in the test on SK-MEL-5, 12.7 µM (inactive). The GI50 with SK-OV-3 is 22.8 µM (inactive); with SN12C it was 15.2 µM (inactive); in the test on SR, 17.2 µM (inactive); in the test with UACC-257 it was 15.2 µM (inactive).

As to `Nc1ccc2cc(S(=O)(=O)O)cc(O)c2c1/N=N/c1ccc(NC(=O)Nc2ccc(/N=N/c3c(N)ccc4cc(S(=O)(=O)O)cc(O)c34)c(S(=O)(=O)O)c2)cc1S(=O)(=O)O`, the GI50 in the test with A498 was > 100 µM (inactive); with A549, > 100 µM (inactive); with CCRF-CEM, > 69.3 µM (inactive); with COLO 205, > 100 µM (inactive); with EKVX, > 100 µM (inactive); with HCT-15 it was greater than 91.2 µM. For the same compound, the GI50 was > 100 µM (inactive) in the test on KM12; > 100 µM (inactive) in the test with Malme-3M; > 100 µM (inactive) with NCI-H226; > 100 µM (inactive) in the test with NCI-H522; > 100 µM (inactive) in the test on OVCAR-3; > 84.1 µM (inactive) with OVCAR-4. The GI50 in the test with RXF 393, in the test with SK-MEL-5, in the test with SK-OV-3, with SN12C and in the test on UACC-257 was > 100 µM (inactive) each time.

For `Cc1c2c(cc3c1[nH]c1ccccc13)C(c1ccc(Cl)cc1)=NCC2`, the GI50 in the test with A498 was 0.124 µM (active); with A549, 0.665 µM (active); in the test with CCRF-CEM it was 0.433 µM (active); in the test on COLO 205, 0.41 µM (active); in the test with EKVX, 0.274 µM (active); with HCT-15, 0.416 µM. The GI50 in the test with KM12 was 0.274 µM (active); in the test on Malme-3M, 1.83 µM (inactive); in the test on NCI-H226, 1.3 µM (inactive); in the test on NCI-H522, 0.288 µM (active); in the test with OVCAR-3, 0.29 µM (active); in the test with OVCAR-4 it was 0.718 µM (active). Besides, the GI50 is 0.465 µM (active) with RXF 393; 0.343 µM (active) with SK-MEL-5; 2.67 µM (inactive) in the test on SK-OV-3; 0.244 µM (active) with SN12C; 0.621 µM (active) with UACC-257.

On to `NN=C(S)Nc1cccc(Cl)c1`, for which the GI50 was > 100 µM (inactive) in the test with 786-0; > 100 µM (inactive) in the test on A498; > 100 µM (inactive) in the test on A549; 25.8 µM (inactive) in the test with CCRF-CEM; 89.7 µM (inactive) in the test with COLO 205; > 100 µM (inactive) with EKVX. Moreover, the GI50 was 48.2 µM in the test on HCT-15; 82 µM (inactive) in the test on KM12; 88.7 µM (inactive) in the test with M14; > 100 µM (inactive) with Malme-3M; 95.9 µM (inactive) in the test on NCI-H522; 29.3 µM (inactive) with OVCAR-3. Further, the GI50 is 39.9 µM (inactive) with OVCAR-4; > 100 µM (inactive) in the test on RXF 393; > 100 µM (inactive) with SK-MEL-5; > 100 µM (inactive) in the test with SK-OV-3; 94.4 µM (inactive) in the test with SN12C; > 100 µM (inactive) in the test with UACC-257.

On to `CC1(C)[C@H](C(=O)O)N2C(=O)[C@@H](NS(=O)(=O)c3ccc([N+](=O)[O-])cc3)[C@H]2S1(=O)=O`, for which the GI50 with 786-0, with A498, with A549, with CCRF-CEM, with COLO 205 and in the test on EKVX was > 100 µM (inactive) in each case. For the same compound, the GI50 with HCT-15 was greater than 100 µM; with KM12, > 100 µM (inactive); with M14, > 100 µM (inactive); with Malme-3M, > 100 µM (inactive); in the test with NCI-H226, > 100 µM (inactive); in the test on NCI-H522, > 100 µM (inactive). Moreover, the GI50 in the test on OVCAR-3, in the test with OVCAR-4, in the test with RXF 393, in the test with SK-MEL-5, in the test with SK-OV-3 and in the test on SN12C was > 100 µM (inactive) in each case. Moreover, the GI50 in the test on UACC-257 is > 100 µM (inactive).

In the case of `O=C(CCC(NC(=O)OCc1ccccc1)C(=O)OCc1ccccc1)Nc1cccc(OCc2ccccc2)c1` (configuration not stated), the GI50 in the test with 786-0 is 17.7 µM (inactive); in the test on A549 it was 35.7 µM (inactive); with CCRF-CEM it was 27.3 µM (inactive); with COLO 205, 15.7 µM (inactive); with EKVX, 35.6 µM (inactive); in the test on HCT-15, 18.3 µM. Also, the GI50 in the test with KM12 is 34.8 µM (inactive); in the test with M14 it was 20.4 µM (inactive); with Malme-3M, 14.5 µM (inactive); with NCI-H226, 29.1 µM (inactive); with NCI-H522 it was 18.7 µM (inactive); in the test with OVCAR-3, 22.3 µM (inactive). For the same compound, the GI50 is 30.2 µM (inactive) with OVCAR-4; 23.8 µM (inactive) with RXF 393; 67.3 µM (inactive) in the test on SK-OV-3; 20.2 µM (inactive) with SN12C; 18.5 µM (inactive) in the test with SR; 23.7 µM (inactive) in the test on UACC-257.
